Laboratory results published in publication PMC10251843 (Animals : an Open Access Journal from MDPI, 2023).
Marks after values point to notes of the source that are not given here.

Columns and labels:
Conditions in all cases: mean ± SD
plasma protein [1] = assay: Plasma protein binding ratio (PPBR) by ultrafiltration, yellow catfish plasma; assay type: in vitro ADME, yellow catfish (Pelteobagrus fulvidraco)
Experimental: (§1) The detailed procedures and the pretreatment of the ultrafiltration unit (UFU) were in line with the previous reports. In brief, the nonspecific absorption (NSB) of UFU was first checked before and after pretreatment of 5% Tween 80. […] Firstly, 100 μL of the sample was used to evaluate the initial concentration before centrifugation. […] To reduce the NSB of UFU, 100 μL of 5% Tween 80 was used to treat UFU at 25 °C for 5 min, and 0.5 mL of physiological saline was used to wash off Tween 80. The NSB of UFU was repeatedly determined again in light of the above-mentioned method.
(§2) The samples of sterile physiological saline were detected without extraction by HPLC. As for the samples of plasma, 0.1 mL of plasma was decanted into a 10 mL centrifugation tube. The extraction method is the same as the reported literature.
(§3) The proportion of the mobile phase was 82:18 (water containing 0.2% formic acid and pure acetonitrile, v/v), following the flow rate of 0.8 mL/min. The excitation wavelength was 280 nm. The emission wavelength was 450 nm.

plasma protein [2] = assay: Plasma protein binding ratio (PPBR) by ultrafiltration, largemouth bass plasma; assay type: in vitro ADME, largemouth bass (Micropterus salmoides)
Experimental: as §1, §2, §3

plasma protein [3] = assay: Plasma protein binding ratio (PPBR) by ultrafiltration, grass carp plasma; assay type: in vitro ADME, grass carp (Ctenopharyngodon idella)
Experimental: as §1, §2, §3

[4] = 1 μg/mL, 25 °C, n = 3, listed as Enrofloxacin
[5] = 5 μg/mL, 15 °C, n = 3, listed as Enrofloxacin
[6] = 5 μg/mL, 20 °C, n = 3, listed as Enrofloxacin
[7] = 5 μg/mL, 25 °C, n = 3, listed as Enrofloxacin
[8] = 10 μg/mL, 15 °C, n = 3, listed as EF
[9] = 10 μg/mL, 15 °C, n = 3, listed as Enrofloxacin
[10] = 10 μg/mL, 20 °C, n = 3, listed as Enrofloxacin
[11] = 10 μg/mL, 25 °C, n = 3, listed as Enrofloxacin
[12] = 1 μg/mL, 15 °C, n = 3, listed as EF

PPBRs (%) (plasma protein [1]; 1 μg/mL, 20 °C, n = 3): 46.10 ± 3.13 ^a %
PPBRs (%) (plasma protein [1]; 1 μg/mL, 20 °C, n = 3, listed as EF): 46.10%
PPBRs (%) (plasma protein [1]; 1 μg/mL, 25 °C, n = 3): 43.90 ± 3.62 ^a %
PPBRs (%) (plasma protein [1]; 1 μg/mL, 25 °C, n = 3, listed as EF): 43.9%
PPBRs (%) (plasma protein [1]; [4]): 43.90 ± 3.62 ^ab %
PPBRs (%) (plasma protein [1]; 5 μg/mL, 15 °C, n = 3): 22.53 ± 6.86 ^b %
PPBRs (%) (plasma protein [1]; 5 μg/mL, 15 °C, n = 3, listed as EF): 22.53%
PPBRs (%) (plasma protein [1]; [5]): 22.53 ± 6.86 ^a %
PPBRs (%) (plasma protein [1]; 5 μg/mL, 20 °C, n = 3): 21.24 ± 6.93 ^b %
PPBRs (%) (plasma protein [1]; [6]): 21.24 ± 6.93 ^a %
PPBRs (%) (plasma protein [1]; 5 μg/mL, 25 °C, n = 3): 17.29 ± 0.69 ^b %
PPBRs (%) (plasma protein [1]; 5 μg/mL, 25 °C, n = 3, listed as EF): 17.29%
PPBRs (%) (plasma protein [1]; [7]): 17.29 ± 0.69 ^a %
PPBRs (%) (plasma protein [1]; 10 μg/mL, 15 °C, n = 3): 9.66 ± 4.09 ^c %
PPBRs (%) (plasma protein [1]; [8]): 9.66%
PPBRs (%) (plasma protein [1]; [9]): 9.66 ± 4.09 ^ab %
PPBRs (%) (plasma protein [1]; 10 μg/mL, 20 °C, n = 3): 13.52 ± 4.74 ^b %
PPBRs (%) (plasma protein [1]; 10 μg/mL, 20 °C, n = 3, listed as EF): 13.52%
PPBRs (%) (plasma protein [1]; [10]): 13.52 ± 4.74 ^a %
PPBRs (%) (plasma protein [1]; 10 μg/mL, 25 °C, n = 3): 4.36 ± 0.58 ^c %
PPBRs (%) (plasma protein [1]; 10 μg/mL, 25 °C, n = 3, listed as EF): 4.36%
PPBRs (%) (plasma protein [1]; [11]): 4.36 ± 0.58 ^b %
PPBRs (%) (plasma protein [2]; 1 μg/mL, 15 °C, n = 3): 35.11 ± 5.18 ^a %
PPBRs (%) (plasma protein [2]; [12]): 35.11%
PPBRs (%) (plasma protein [2]; 1 μg/mL, 20 °C, n = 3): 37.93 ± 6.11 ^a %
PPBRs (%) (plasma protein [2]; 1 μg/mL, 25 °C, n = 3): 39.12 ± 1.72 ^a %
PPBRs (%) (plasma protein [2]; 5 μg/mL, 15 °C, n = 3): 14.39 ± 0.61 ^b %
PPBRs (%) (plasma protein [2]; [5]): 14.39 ± 0.61 ^a %
PPBRs (%) (plasma protein [2]; 5 μg/mL, 20 °C, n = 3): 17.46 ± 2.82 ^b %
PPBRs (%) (plasma protein [2]; [6]): 17.46 ± 2.82 ^ab %
PPBRs (%) (plasma protein [2]; 5 μg/mL, 25 °C, n = 3): 23.20 ± 5.87 ^b %
PPBRs (%) (plasma protein [2]; 10 μg/mL, 15 °C, n = 3): 9.30 ± 5.15 ^C %
PPBRs (%) (plasma protein [2]; [8]): 9.30%
PPBRs (%) (plasma protein [2]; [9]): 9.30 ± 5.15 ^a %
PPBRs (%) (plasma protein [2]; 10 μg/mL, 20 °C, n = 3): 10.84 ± 1.08 ^C %
PPBRs (%) (plasma protein [2]; [10]): 10.84 ± 1.08 ^a %
PPBRs (%) (plasma protein [2]; 10 μg/mL, 25 °C, n = 3): 7.77 ± 2.10 ^C %
PPBRs (%) (plasma protein [2]; [11]): 7.77 ± 2.10 ^a %
PPBRs (%) (plasma protein [3]; 1 μg/mL, 15 °C, n = 3): 60.52 ± 0.99 ^a %
PPBRs (%) (plasma protein [3]; [12]): 60.52%
PPBRs (%) (plasma protein [3]; 1 μg/mL, 20 °C, n = 3): 51.27 ± 1.56 ^a %
PPBRs (%) (plasma protein [3]; 1 μg/mL, 20 °C, n = 3, listed as Enrofloxacin): 51.27 ± 1.56 ^b %
PPBRs (%) (plasma protein [3]; 1 μg/mL, 25 °C, n = 3): 50.09 ± 2.06 ^a %
PPBRs (%) (plasma protein [3]; [4]): 50.09 ± 2.06 ^b %
PPBRs (%) (plasma protein [3]; 5 μg/mL, 15 °C, n = 3): 33.77 ± 0.07 ^B %
PPBRs (%) (plasma protein [3]; [5]): 33.77 ± 0.07 ^a %
PPBRs (%) (plasma protein [3]; 5 μg/mL, 20 °C, n = 3): 22.07 ± 1.19 ^B %
PPBRs (%) (plasma protein [3]; 5 μg/mL, 25 °C, n = 3): 23.36 ± 3.86 ^B %
PPBRs (%) (plasma protein [3]; [7]): 23.36 ± 3.86 ^a %
PPBRs (%) (plasma protein [3]; 10 μg/mL, 15 °C, n = 3): 16.95 ± 1.81 ^C %
PPBRs (%) (plasma protein [3]; [8]): 16.95%
PPBRs (%) (plasma protein [3]; [9]): 16.95 ± 1.81 ^a %
PPBRs (%) (plasma protein [3]; 10 μg/mL, 20 °C, n = 3): 8.34 ± 2.29 ^C %
PPBRs (%) (plasma protein [3]; [10]): 8.34 ± 2.29 ^b %
PPBRs (%) (plasma protein [3]; 10 μg/mL, 25 °C, n = 3): 5.52 ± 1.99 ^C %
PPBRs (%) (plasma protein [3]; [11]): 5.52 ± 1.99 ^B %
SMILES: CCN1CCN(c2cc3c(cc2F)c(=O)c(C(=O)O)cn3C2CC2)CC1 [Enrofloxacin (EF), Enrofloxacin]
